Results reported in BindingDB's records for doi:10.1016/j.bioorg.2015.04.003 (Comsats Institute of Information Technology, 2015).

Target: T1, Thymidine phosphorylase (Escherichia coli O157:H7, UniProt Q8XB35)
T1 sequence (Q8XB35 whole entry): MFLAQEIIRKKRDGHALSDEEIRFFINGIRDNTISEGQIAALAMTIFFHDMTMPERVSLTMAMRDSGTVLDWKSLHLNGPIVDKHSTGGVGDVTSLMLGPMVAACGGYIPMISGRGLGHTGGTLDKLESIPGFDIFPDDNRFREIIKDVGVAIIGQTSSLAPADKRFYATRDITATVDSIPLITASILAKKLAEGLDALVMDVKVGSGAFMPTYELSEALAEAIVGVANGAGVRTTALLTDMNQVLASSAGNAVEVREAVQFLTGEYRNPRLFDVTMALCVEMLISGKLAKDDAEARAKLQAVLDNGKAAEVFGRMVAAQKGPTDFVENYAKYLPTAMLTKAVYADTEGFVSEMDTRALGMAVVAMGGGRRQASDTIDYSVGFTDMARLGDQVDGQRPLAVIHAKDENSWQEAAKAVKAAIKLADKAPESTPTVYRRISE
Experiment: Thymidine Phosphorylase Inhibition Assay
Settings: pH 7.4
Experimental: Briefly, a total reaction mixture of 200 µl contained 145 µl of potassium phosphate buffer (pH 7.4), 30 µl of enzyme at concentration 0.05 and 0.002 U, respectively, were incubated with 5 µl of test materials for 10 min at 25 °C in microplate reader. After incubation, pre read at 290 nm was taken to deduce the absorbance of substrate molecules. Substrate (20 µl, 1.5 mM) was dissolved in potassium phosphate buffer and was immediately added to plate and continuously read after 10, 20, and 30 min in micro-plate reader. All assays were performed in triplicate

| SMILES | IC50 |
| --- | --- |
| Oc1ccc(-c2nnc(S)o2)cc1 [5(4'-Hydroxyphenyl)-1,3,4-oxadiazole-2(3H)-thione (6)] | 38.2 µM |
| Nc1ccccc1-c1n[nH]c(=S)o1 [5-(2'-Aminophenyl)-1,3,4-oxadiazole-2(3H)-thione (3)] | 74.3 µM |
| Oc1ccccc1-c1nnc(S)o1 [5-(2'-Hydroxyphenyl)-2,3-dihydro-1,3,4-oxadiazole-2-thione (2)] | 68.4 µM |
| COc1cc(-c2n[nH]c(=S)o2)cc(OC)c1OC [5-(3',4',5'-Trimethoxyphenyl)-1,3,4-oxadiazole-2(3H)-thione (8)] | 63.4 µM |
| Sc1nnc(-c2cccc(Cl)c2)o1 [5-(3'-Chlorophenyl)-1,3,4-oxadiazole-2(3H)-thione (10)] | 258 µM |
| Cc1cccc(-c2nnc(S)o2)c1 [5-(3'-Methylphenyl)-1,3,4-oxadiazole-2(3H)-thione (4)] | 91.8 µM |
| S=c1[nH]nc(-c2ccc(Br)cc2)o1 [5-(4'-Bromophenyl)-1,3,4-oxadiazole-2(3H)-thione (12)] | 64 µM |
| S=c1[nH]nc(-c2ccc(Cl)cc2)o1 [5-(4'-Chlorophenyl)-1,3,4-oxadiazole-2(3H)-thione (11)] | 64 µM |
| COc1ccc(-c2n[nH]c(=S)o2)cc1 [5-(4'-Methoxyphenyl)-1,3,4-oxadiazole-2(3H)-thione (7)] | 72.4 µM |
